Molecules are shown by their SMILES. Residues, ends and D or L forms follow the SMILES beside them.

Data set [1] deals with normal human epidermal keratinocytes (NHEKs). Kind of data set: LDH release cytotoxicity assay in keratinocytes. The format is cell-based. Conditions: minimal concentration giving 50% LDH release by NHEKs. The gist of the method:
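Normal human epidermal keratinocytes were exposed to LL-34 parent and alanine-substituted peptides. Cytotoxicity was read as LDH release in fresh culture supernatants after treatment, using a commercial kit, and reported as the minimal concentration showing toxicity.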

In data set [2] the target is T1, scavenger receptor SRB1 (Homo sapiens, UniProt Q8WTV0).
T1 construct: host or cells: NHEK (normal human epidermal keratinocytes)
T1 sequence (Q8WTV0 1-552): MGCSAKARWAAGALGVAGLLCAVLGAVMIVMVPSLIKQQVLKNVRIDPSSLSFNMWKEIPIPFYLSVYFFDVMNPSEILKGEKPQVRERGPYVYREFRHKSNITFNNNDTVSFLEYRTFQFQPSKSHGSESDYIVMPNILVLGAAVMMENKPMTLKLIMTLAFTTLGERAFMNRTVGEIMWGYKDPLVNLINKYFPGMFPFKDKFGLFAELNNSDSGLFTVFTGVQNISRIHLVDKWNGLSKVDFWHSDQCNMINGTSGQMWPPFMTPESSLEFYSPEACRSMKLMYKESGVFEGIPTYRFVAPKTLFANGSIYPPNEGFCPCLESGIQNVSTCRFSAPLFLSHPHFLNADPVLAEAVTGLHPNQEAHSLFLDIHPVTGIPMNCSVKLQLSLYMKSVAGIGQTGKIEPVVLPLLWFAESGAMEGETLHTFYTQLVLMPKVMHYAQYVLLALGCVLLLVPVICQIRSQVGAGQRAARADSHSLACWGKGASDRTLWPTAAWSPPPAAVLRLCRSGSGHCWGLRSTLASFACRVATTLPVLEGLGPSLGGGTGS
The experiment in a line: Proximity ligation assay (PLA) on NHEKs. The format is cell-based. Conditions: peptide 2 μM 15 min, then biotinylated U1 dsRNA 2 μg/ml 60 min at 4 °C, spatial correlation <40 nm, n = 3. The procedure: Figure 4 LL-34 enables U1 dsRNA association with scavenger receptor (SR) SRB1.A and B, NHEKs with gene knockdown for SRs SCARB1, SCARB1, SCARA3, CD36, LRP1, CD163L1, CXCL16, MSR1, MARCO, and OLR1 were cotreated with U1 dsRNA (2.5 μg/ml) and LL-34 (2 μM) for 18 h. Gene expression of IFNB1 and CXCL10 was assessed with quantitative RT-PCR (n = 3). C, proximity ligation assay (PLA) for U1 dsRNA and SR SRB1 binding. NHEKs were treated with LL-34-parent, LL-34-I24A, and LL-34-L31A (2 μM) for 15 min, followed by treatment with biotinylated U1 dsRNA (2 μg/ml) for 60 min at 4 °C. The physical proximity of LL-34 and SRB1 (C), and U1 dsRNA, and SRB1 (D) was determined with fluorescence-based PLA that produces a red fluorescent signal. DAPI (blue) was used as a nuclear counterstain. The scale bar represents 50 μm. Signal counts of C and D from five visual fields were used for PLA signal quantification, as shown in E and F (n = 3). (∗p < 0.05; ∗∗p < 0.01; ∗∗∗p < 0.001; ∗∗∗∗p < 0.0001). […]
The binding of peptide to SRB1 or U1 to SRB1 was assessed by proximity ligation assay (PLA) (Fig. 4, C–E).
PLA was performed as described previously ([30]). […] PLA signals were captured on Olympus BX41 microscope (widefield) with 40× objective and counted by Duolink ImageTool software, version 1.0 (Sigma–Aldrich). Five fields were captured per treatment for quantification of PLA signals with ImageTool software. […]

With `CC[C@H](C)[C@H](NC(=O)[C@H](CCCCN)NC(=O)[C@H](CCC(=O)O)NC(=O)[C@H](CCCCN)NC(=O)[C@H](CO)NC(=O)[C@H](CCCCN)NC(=O)[C@H](CCCNC(=N)N)NC(=O)[C@H](Cc1ccccc1)NC(=O)[C@H](Cc1ccccc1)NC(=O)[C@H](CC(=O)O)NC(=O)CNC(=O)[C@H](CC(C)C)NC(=O)[C@@H](N)CC(C)C)C(=O)NCC(=O)N[C@@H](CCCCN)C(=O)N[C@@H](CCC(=O)O)C(=O)N[C@@H](Cc1ccccc1)C(=O)N[C@@H](CCCCN)C(=O)N[C@@H](CCCNC(=N)N)C(=O)N[C@H](C(=O)N[C@H](C(=O)N[C@@H](CCC(N)=O)C(=O)N[C@@H](CCCNC(=N)N)C(=O)N[C@@H](C)C(=O)N[C@@H](CCCCN)C(=O)N[C@@H](CC(=O)O)C(=O)N[C@@H](Cc1ccccc1)C(=O)N[C@@H](CC(C)C)C(=O)N[C@@H](CCCNC(=N)N)C(=O)N[C@@H](CC(N)=O)C(=O)N[C@@H](CC(C)C)C(=O)N[C@H](C(=O)N1CCC[C@H]1C(=O)N[C@@H](CCCNC(=N)N)C(=O)O)C(C)C)C(C)C)[C@@H](C)CC` [LL-34—I24A] (H-LLGDFFRKSKEKIGKEFKRIVQRAKDFLRNLVPR-OH), the “Minimal cytotoxic concentration in NHEK (LD50)” value in data set [1] is 20 µM. The “Localization of peptide with SRB1 (PLA)” value in data set [2] was “did not achieve close localization”.

In the case of `CC[C@H](C)[C@H](NC(=O)[C@H](CCCCN)NC(=O)[C@H](CCC(=O)O)NC(=O)[C@H](CCCCN)NC(=O)[C@H](CO)NC(=O)[C@H](CCCCN)NC(=O)[C@H](CCCNC(=N)N)NC(=O)[C@H](Cc1ccccc1)NC(=O)[C@H](Cc1ccccc1)NC(=O)[C@H](CC(=O)O)NC(=O)CNC(=O)[C@H](CC(C)C)NC(=O)[C@@H](N)CC(C)C)C(=O)NCC(=O)N[C@@H](CCCCN)C(=O)N[C@@H](CCC(=O)O)C(=O)N[C@@H](Cc1ccccc1)C(=O)N[C@@H](CCCCN)C(=O)N[C@@H](CCCNC(=N)N)C(=O)N[C@H](C(=O)N[C@H](C(=O)N[C@@H](CCC(N)=O)C(=O)N[C@@H](CCCNC(=N)N)C(=O)N[C@H](C(=O)N[C@@H](CCCCN)C(=O)N[C@@H](CC(=O)O)C(=O)N[C@@H](Cc1ccccc1)C(=O)N[C@@H](CC(C)C)C(=O)N[C@@H](CCCNC(=N)N)C(=O)N[C@@H](CC(N)=O)C(=O)N[C@@H](C)C(=O)N[C@H](C(=O)N1CCC[C@H]1C(=O)N[C@@H](CCCNC(=N)N)C(=O)O)C(C)C)[C@@H](C)CC)C(C)C)[C@@H](C)CC` [LL-34—L31A] (H-LLGDFFRKSKEKIGKEFKRIVQRIKDFLRNAVPR-OH), in data set [1], the “Minimal cytotoxic concentration in NHEK (LD50)” value stood at 10 µM. Moreover, the “Localization of peptide with SRB1 (PLA)” value in data set [2] was “did not achieve close localization”.

Values taken from paper PMC8214221, “Sequence determinants in the cathelicidin LL-37 that promote inflammation via presentation of RNA to scavenger receptors” (The Journal of Biological Chemistry, 2021).
